Target: T1, human β3 adrenergic receptor (Homo sapiens, UniProt P13945)
T1 construct: expressed in transfected cells
Assay: whole cell receptor coupled c-AMP assay (Emax relative to isoproterenol)
Type: cell-based
Details: transfected CHO cells; for Emax: CHO
Excerpt: The genes encoding the human β1-adrenergic receptor (Frielle et al., Proc. Natl. Acad. Sci., 84:7920–7924, 1987), the human β2-adrenergic receptor (Kobika et al., Proc. Natl. Acad. Sci., 84:46–50, 1987, Emorine et al., Proc. Natl. Acad. Sci., 84:6995–6999, 1987) and the human β3 adrenergic receptor (Granneman et al., Molecular Pharmacology, 44(2):264–70, 1993) are individually subcloned into a phd expression vector (Grinnell et al., Bio/Technology, 5:1189–1192, 1987) and transfected into the DXB-11 Chinese hamster ovary (CHO) cell line by calcium phosphate precipitation methodology. The stably transfected cells are grown to 95% confluency in 95% Dulbecco's modified Eagles Medium (DMEM), 5% fetal bovine serum and 0.01% proline. Media is removed and the cells are washed with phosphate buffered (pH 7.4) saline (without magnesium and calcium). Cells are then lifted using an enzyme free cell dissociation solution (Specialty Media, Lavallette, N.J.) and pelleted by centrifugation.
Cells from each of the above cell lines are resuspended and added (20,000/well) to a 96-well plate. Cells are incubated at 37° C. with representative compounds of the invention for 20 minutes in buffer (Hank's balanced salt solution, 10 mM HEPES, 0.1% BSA, 1 mM L-ascorbic acid, 0.2% dimethyl sulfoxide, 1 mM 3-isobutyl-1-methylxanthine, pH 7.4). After halting the incubation with quench buffer (50 mM Na Acetate, 0.25% Triton X-100, pH 5.8), the c-AMP level is quantified by scintillation proximity assay (SPA) using a modification of the commercially available c-AMP kit (Amersham, Arlington Heights, Ill.) with rabbit anti-cAMP antibody (ICN Biomedicals, Aurora, Ohio) for the kit.
Sigmoidal dose response curves, from the whole cell receptor coupled c-AMP assay are fit to a four parameter logistic equation using non linear regression: y=(a−d)/(1+(Dose/c)^b)+d where a and d are responses at zero and maximal dose, b is the slope factor and c is the EC50 as previously described (DeLean et al., Am. J. Physiol., 235, E97-E102, 1978). EC50 is assessed as the concentration producing 50% of the maximum response to each agonist.
Isoproterenol is accepted in the art as a non-selective β3 agonist and is widely used as a comparator in evaluating the activity of compounds. See Trends in Pharm. Sci., 15:3, 1994. The % intrinsic activity (Emax) of representative compounds of the invention is assessed relative to isoproterenol by the compound's maximal response divided by the isoproterenol maximal response times 100.

[1] = % intrinsic activity: maximal response divided by isoproterenol maximal response times 100, average of at least 3 runs
[2] = % intrinsic activity relative to isoproterenol

T1 sequence (P13945 whole entry): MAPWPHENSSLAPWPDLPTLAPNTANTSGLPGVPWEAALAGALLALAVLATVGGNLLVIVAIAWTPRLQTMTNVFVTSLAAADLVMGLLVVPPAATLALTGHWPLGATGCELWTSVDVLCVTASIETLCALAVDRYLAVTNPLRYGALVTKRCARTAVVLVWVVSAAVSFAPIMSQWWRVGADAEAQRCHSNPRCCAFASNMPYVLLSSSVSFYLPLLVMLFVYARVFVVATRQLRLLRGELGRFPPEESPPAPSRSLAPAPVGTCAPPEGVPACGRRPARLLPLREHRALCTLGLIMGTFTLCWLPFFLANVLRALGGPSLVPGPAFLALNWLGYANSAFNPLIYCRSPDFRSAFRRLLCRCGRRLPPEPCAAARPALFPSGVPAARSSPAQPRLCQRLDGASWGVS

CC(C)(Cc1c[nH]c2c(-c3cccc(C(F)(F)F)c3)cccc12)NC[C@H](O)COc1ccccc1-c1cccs1 [Example 37]
Emax (%) ± SEM [1]: 82.0 ± 4.3%

CC(C)(Cc1c[nH]c2c(-c3cccc(C(F)(F)F)c3)cccc12)NC[C@H](O)COc1ccccc1-c1ccon1 [Example 38]
Emax (%) ± SEM [1]: 78.0 ± 2.8%

CC(C)(Cc1c[nH]c2ccc(F)cc12)NC[C@H](O)COc1ccccc1-c1cccs1 [Example 163]
Emax (%) ± SEM [1]: 57.1 ± 5.8%

CC(=O)c1ccc(-c2cccc3c(CC(C)(C)NC[C@H](O)COc4ccccc4-c4cccs4)c[nH]c23)cc1 [Example 48]
Emax (%) ± SEM [1]: 60.4 ± 6.0%

CC(C)(Cc1c[nH]c2c(Oc3cc(C#N)ccn3)cccc12)NC[C@H](O)COc1ccccc1-c1cccs1 [Example 114]
Emax (%) ± SEM [1]: 72.1 ± 5.0%

Cc1cc2c(OCC#N)cccc2n1C[C@@H](C)NC[C@H](O)COc1ccccc1-c1cccs1 [Example 156]
Emax (%) ± SEM [1]: 41.9 ± 9.3%

COC(=O)c1ccc(-c2cccc3c(CC(C)(C)NC[C@H](O)COc4ccccc4-c4cccs4)c[nH]c23)cc1 [Example 178]
Emax (%) ± SEM [1]: 72.5 ± 2.2%

CC(C)(Cc1c[nH]c2c(C=Cn3cncn3)cccc12)NCC(O)COc1ccccc1-c1cccs1 (stereo not shown) [Example 146]
Emax (%) ± SEM [1]: 47.3 ± 2.3%

COC(=O)c1ccc2[nH]cc(CC(C)(C)NC[C@H](O)COc3ccccc3-c3cccs3)c2c1 [Example 70]
Emax (%) ± SEM [1]: 37.3 ± 2.7%

CC(C)(Cc1c[nH]c2ccccc12)NC[C@H](O)COc1ccccc1-c1nccs1 [Example 68]
Emax (%) ± SEM [1]: 53.2 ± 1.6%

CC(=O)c1cccc(-c2cccc3c(CC(C)(C)NC[C@H](O)COc4ccccc4-c4cccs4)c[nH]c23)c1 [Example 46]
Emax (%) ± SEM [1]: 68.2 ± 2.2%

CCOC(=O)c1cccc(-c2cccc3c(CC(C)(C)NC[C@H](O)COc4ccccc4-c4cccs4)c[nH]c23)c1 [Example 40]
Emax (%) ± SEM [1]: 73.3 ± 4.6%

CC(C)(Cc1c[nH]c2c(F)cccc12)NC[C@H](O)COc1ccccc1-c1nccs1 [Example 171]
Emax (%) ± SEM [1]: 56.0 ± 1.5%

CC(C)(Cc1c[nH]c2c(OCC#N)cccc12)NC[C@H](O)COc1ccccc1-c1cccs1 [Example 137]
Emax (%) ± SEM [1]: 65.5 ± 4.7%

CC(C)(Cc1c[nH]c2ccccc12)NC[C@H](O)COc1ccccc1-c1csc(C#N)c1.O=C(O)C(F)(F)F [Example 15]
Emax (%) ± SEM [1]: 50.2 ± 7.3%

CC(=O)c1ccc(-c2cccc3c(CC(C)(C)NC[C@H](O)COc4ccccc4-n4cccc4)c[nH]c23)cc1 [Example 50]
Emax (%) ± SEM [1]: 38.4 ± 3.2%

CC(C)(Cc1c[nH]c2c(C(=O)O)cccc12)NC[C@H](O)COc1ccccc1-c1ccsc1 [Example 61]
Emax (%) ± SEM [1]: 56.6 ± 2.7%

CC(C)(Cc1c[nH]c2c(NS(C)(=O)=O)cccc12)NC[C@H](O)COc1ccccc1-c1ccc(S(N)(=O)=O)s1 [Example 30]
Emax (%) ± SEM [1]: 90.0 ± 6.6%

CC(C)(Cc1c[nH]c2c(OCC#N)cccc12)NC[C@H](O)COc1ccccc1-c1ccc(C#N)s1 [Example 202]
Emax [2]: 85%

CC(C)(Cc1c[nH]c2ccccc12)NC[C@H](O)COc1ccccc1-c1cocn1 [Example 31]
Emax (%) ± SEM [1]: 62.4 ± 2.1%

CC(C)(Cc1c[nH]c2c(-c3cccc(C(F)(F)F)c3)cccc12)NC[C@H](O)COc1ccccc1-n1cccc1 [Example 39]
Emax (%) ± SEM [1]: 71.7 ± 3.0%

C[C@H](Cn1ccc2c(OCC#N)cccc21)NC[C@H](O)COc1ccccc1-c1ccns1 [Example 151]
Emax (%) ± SEM [1]: 52.4 ± 4.3%

CC(C)(Cc1c[nH]c2c(OCC#N)cccc12)NC[C@H](O)COc1ccccc1-c1nncs1 [Example 160]
Emax (%) ± SEM [1]: 44.3 ± 3.9%

C[C@H](Cn1ccc2cc(C(=O)O)ccc21)NC[C@H](O)COc1ccccc1-c1cccs1 [Example 243]
Emax [1]: 48.4 ± 2.5%

CC(C)(Cc1c[nH]c2c(F)cccc12)NC[C@H](O)COc1ccccc1-c1cccs1 [Example 170]
Emax (%) ± SEM [1]: 71.2 ± 1.2%

CC(C)(Cc1c[nH]c2ccccc12)NC[C@H](O)COc1ccccc1-c1nncs1 [Example 82]
Emax (%) ± SEM [1]: 45.5 ± 3.5%

CC(C)(Cc1c[nH]c2c(OCC(=O)O)cccc12)NC[C@H](O)COc1ccccc1-n1cccc1 [Example 203]
Emax [2]: 73.8%

CC(C)(Cc1c[nH]c2c(-c3ccsc3)cccc12)NC[C@H](O)COc1ccccc1-c1ccon1 [Example 107]
Emax (%) ± SEM [1]: 57.9 ± 6.2%

C[C@H](Cn1ccc2ccc(OCC#N)cc21)NC[C@H](O)COc1ccccc1-c1cccs1 [Example 67]
Emax (%) ± SEM [1]: 28.6 ± 3.4%

CC(C)(Cc1c[nH]c2c(NS(C)(=O)=O)cccc12)NC[C@H](O)COc1ccccc1-c1ccon1 [Example 28]
Emax (%) ± SEM [1]: 58.5 ± 0.5%

C[C@H](Cn1ccc2c(OCC#N)cccc21)NC[C@H](O)COc1ccccc1-c1ccon1 [Example 150]
Emax (%) ± SEM [1]: 46.6 ± 1.9%

CC(C)(Cc1c[nH]c2c(CCn3cncn3)cccc12)NC[C@H](O)COc1ccccc1-c1cccs1 [Example 222]
Emax [1]: 81.2 ± 0.9%

COC(=O)c1cccc2[nH]cc(CC(C)(C)NC[C@H](O)COc3ccccc3-c3cccs3)c12 [Example 69]
Emax (%) ± SEM [1]: 39.1 ± 7.1%

CC(C)(Cc1c[nH]c2cc(C(=O)O)ccc12)NC[C@H](O)COc1ccccc1-c1nccs1 [Example 204]
Emax [2]: 67%

CC(C)(Cc1c[nH]c2c(OCC#N)cccc12)NC[C@H](O)COc1ccccc1-c1cocn1.O=C(O)C(F)(F)F [Example 6]
Emax (%) ± SEM [1]: 55.0 ± 3.4%

Cc1ccc(-c2ccccc2OC[C@@H](O)CNC(C)(C)Cc2c[nH]c3ccccc23)s1.O=C(O)C(F)(F)F [Example 13]
Emax (%) ± SEM [1]: 63.4 ± 0.3%

CC(C)(Cc1c[nH]c2ccccc12)NC[C@H](O)COc1ccccc1-c1cccs1 [Example 157]
Emax (%) ± SEM [1]: 51.3 ± 7.8%

CC(C)(Cc1c[nH]c2c(Oc3ccc(C#N)cn3)cccc12)NC[C@H](O)COc1ccccc1-c1ccon1 [Example 116]
Emax (%) ± SEM [1]: 58.1 ± 1.6%

C[C@H](Cn1ccc2ccccc21)NC[C@H](O)COc1ccccc1-c1nccs1 [Example 66]
Emax (%) ± SEM [1]: 34.8 ± 3.2%

CC(C)(Cc1c[nH]c2c(OCC(=O)NS(C)(=O)=O)cccc12)NC[C@H](O)COc1ccccc1-c1cccs1 [Example 176]
Emax (%) ± SEM [1]: 79.0 ± 2.9%

CC(C)(Cc1c[nH]c2c(OCC#N)cccc12)NC[C@H](O)COc1ccccc1-c1csc(C#N)c1.O=C(O)C(F)(F)F [Example 16]
Emax (%) ± SEM [1]: 54.2 ± 2.2%

COC(=O)c1ccc(-c2cccc3c(CC(C)(C)NC[C@H](O)COc4ccccc4-c4cccs4)c[nH]c23)cc1 [Example 43]
Emax (%) ± SEM [1]: 66.6 ± 3.1%

CC(C)(Cc1c[nH]c2c(OCC#N)cccc12)NC[C@H](O)COc1ccccc1-c1ccon1 [Example 133]
Emax (%) ± SEM [1]: 60.6 ± 2.4%

C[C@H](CN1CCc2ccccc21)NC[C@H](O)COc1ccccc1-c1ccon1 [Example 129]
Emax (%) ± SEM [1]: 35.2 ± 3.3%

CC(C)(Cc1c[nH]c2ccccc12)NC[C@H](O)COc1ccc(F)cc1-c1ccno1 [Example 81]
Emax (%) ± SEM [1]: 35.1 ± 2.1%

CCOC(=O)c1cccc(-c2cccc3c(CC(C)(C)NC[C@H](O)COc4ccccc4-n4cccc4)c[nH]c23)c1 [Example 42]
Emax (%) ± SEM [1]: 61.0 ± 4.5%

C[C@@H](NC[C@H](O)COc1ccccc1-c1cccs1)C(=O)N1CCc2ccccc21 [Example 131]
Emax (%) ± SEM [1]: 23.6 ± 1.7%

COC(=O)c1ccc(-c2cccc3c(CC(C)(C)NC[C@H](O)COc4ccccc4-n4cccc4)c[nH]c23)cc1 [Example 45]
Emax (%) ± SEM [1]: 41.9 ± 4.5%

CC(C)(Cc1c[nH]c2c(-c3cccc(C(=O)O)c3)cccc12)NC[C@H](O)COc1ccccc1-c1cccs1 [Example 248]
Emax [1]: 84.1 ± 1.8%

CC(C)(Cc1c[nH]c2ccc(C(N)=O)cc12)NC[C@H](O)COc1ccccc1-c1cccs1 [Example 71]
Emax (%) ± SEM [1]: 47.4 ± 1.8%

CC(C)(Cc1c[nH]c2cc(OCC(=O)O)ccc12)NC[C@H](O)COc1ccccc1-c1cccs1 [Example 236]
Emax [1]: 88.4 ± 3.9%

CC(C)(Cc1c[nH]c2ccccc12)NC[C@H](O)COc1ccccc1-c1cnco1 [Example 34]
Emax (%) ± SEM [1]: 64.5 ± 2.1%

CC(C)(Cc1c[nH]c2ccc(OCC#N)cc12)NC[C@H](O)COc1ccccc1-c1cccs1 [Example 169]
Emax (%) ± SEM [1]: 51.9 ± 3.4%

CC(C)(Cc1c[nH]c2ccccc12)NC[C@H](O)COc1cccnc1-c1cccs1 [Example 125]
Emax (%) ± SEM [1]: 59.2 ± 2.2%

CC(C)(Cc1c[nH]c2c(NS(=O)(=O)c3ccccc3)cccc12)NC[C@H](O)COc1ccccc1-c1ccon1 [Example 26]
Emax (%) ± SEM [1]: 70.9 ± 5.4%

Reference: US7208505B2, “β3 adrenergic agonists” (Eli Lilly and Company, priority 2001, dated 2007)
